The source of these data is patent US6960614B2, “Oxygenated esters of 4-lodo phenylamino benzhydroxamic acids” (Warner-Lambert Company, priority 2000, dated 2005).

Where a name gives a salt, the structure may show the parent alone.

This test relates to MEK. Kind of test: Cellular Assay for Measuring MEK Inhibition (inhibition of ERK phosphorylation in C26 cells, Western blot). In kind it is cell-based, murine. Particulars: for IC50: inhibition of ERK phosphorylation in murine colon 26 (C26) carcinoma cells, determined graphically from dose response curve; for % Inhibition @ 0.1 μM / % Inhibition @ 1 μM: ERK phosphorylation in C26 cells. On the procedure:
The evaluation of the compounds as MEK inhibitors was performed in an assay that measures their ability to inhibit phosphorylation of MAP kinase […]) in murine colon 26 (C26) carcinoma cells. Since ERK1 and ERK2 represent the only known substrates for MEK, measurement of inhibition of ERK phosphorylation in cells provides direct readout of cellular MEK inhibition by the compounds of the invention. Briefly, the assay involves treating exponentially growing C26 cells with varying concentrations of the test compound (or vehicle control) for […] at 37° C. Cells are then rinsed free of compound/vehicle and lysed in a solution containing 70 mM NaCl, 50 mM glycerol phosphate, 10 mM HEPES, pH 7.4, 1% Triton X-100, 1 mM Na3VO4, 100 μM PMSF, 10 μM leupeptin and 10 μM pepstatin. Supernatants are then subjected to gel electrophoresis and Western blotting using a primary antibody recognizing dually phosphorylated ERK1 and ERK2. To evaluate total MAPK levels, blots were subsequently ‘stripped’ and re-probed with a 1:1 mixture of polyclonal antibodies recognizing unphosphorylated ERK1 and ERK2.

In turn, `O=C(NOCCO)c1ccc(F)cc1Nc1ccc(I)cc1Cl` [Example 4, 2-(2-Chloro-4-iodo-phenylamino)-4-fluoro-N-(2-hydroxy-ethoxy)-benzamide] registered an IC50 of 2 nM.

`Cc1cc(I)ccc1Nc1cc(F)ccc1C(=O)NOCCO` [Example 5, 4-Fluoro-N-(2-hydroxy-ethoxy)-2-(4-iodo-2-methyl-phenylamino)-benzamide] registered an IC50 of 3 nM. On the same count and under the same terms, in the case of `O=C(NOCCO)c1cc(F)c(F)cc1Nc1ccc(I)cc1Cl` [Example 17, 2-(2-Chloro-4-iodo-phenylamino)-4,5-difluoro-N-(2-hydroxy-ethoxy)-benzamide] it was 45 nM; in that of `O=C(NOCCCO)c1ccc(F)c(F)c1Nc1ccc(I)cc1F` [Example 32, 3,4-Difluoro-2-(2-fluoro-4-iodo-phenylamino)-N-(3-hydroxy-propoxy)-benzamide], 4.4 nM. The same measure, in the same setting: to `O=C(NOCC(O)CO)c1cc(Br)c(F)c(F)c1Nc1ccc(I)cc1F` (stereo not drawn) [Example 40, 5-Bromo-N-(2,3-dihydroxy-propoxy)-3,4-difluoro-2-(2-fluoro-4-iodo-phenylamino)-benzamide] belongs 1.4 nM. The compound `O=C(NOC[C@H](O)CO)c1cc(Cl)c(F)c(F)c1Nc1ccc(I)cc1F` [Example 53] showed an IC50 of 1.2 nM. Same read-out and setting: in the case of `O=C(NOCCNc1ccccc1)c1ccc(F)c(F)c1Nc1ccc(I)cc1Cl` [Example 77, 2-(2-Chloro-4-iodo-phenylamino)-3,4-difluoro-N-(2-phenylamino-ethoxy)-benzamide] it was 240 nM. On the same count and under the same terms, to `CNCCONC(=O)c1ccc(F)c(F)c1Nc1ccc(I)cc1F` [Example 79, 3,4-Difluoro-2-(2-fluoro-4-iodo-phenylamino)-N-(2-methylamino-ethoxy)-benzamide, hydrochloride salt] belongs 20 nM; to `Cc1cc(I)ccc1Nc1c(C(=O)NOCCNCC(F)(F)F)ccc(F)c1F` [Example 80, 3,4-Difluoro-2-(4-iodo-2-methyl-phenylamino)-N-[2-(2,2,2-trifluoro-ethylamino)-ethoxy]-benzamide; hydrochloride], 490 nM. `CN(OCCO)C(=O)c1ccc(F)cc1Nc1ccc(I)cc1Cl` [Example 81, 2-(2-Chloro-4-iodo-phenylamino)-4-fluoro-N-(2-hydroxy-ethoxy)-N-methyl-benzamide] came in with an IC50 of 134 nM. Compared with the last compound, the IC50 is about 3.7-fold lower. Still for that read-out and setting: in the case of `CC(=O)OCCONC(=O)c1cc(F)c(F)c(F)c1Nc1ccc(I)cc1C` [Example 82, Acetic acid 2-({1-[3,4,5-trifluoro-2-(4-iodo-2-methyl-phenylamino)-phenyl]-methanoyl}-aminooxy)-ethyl ester] it was over 1000 nM; in that of `O=C(NOCC(O)CO)c1ccc(F)c(F)c1Nc1ccc(I)cc1Cl` (stereo not drawn) [Example 86, 2-(2-Chloro-4-iodo-phenylamino)-N-(2,3-dihydroxy-propoxy)-3,4-difluoro-benzamide], 19 nM; in that of `O=C(NOCC(O)CO)c1cc(F)c(F)c(F)c1Nc1ccc(I)cc1Cl` (stereo not drawn) [Example 87, 2-(2-Chloro-4-iodo-phenylamino)-N-(2,3-dihydroxy-propoxy)-3,4,5-trifluoro-benzamide], 25 nM.

For the compound `O=C(NOCC(O)CO)c1cc(Br)c(F)c(F)c1Nc1ccc(I)cc1Cl` (stereo not drawn) [Example 88, 5-Bromo-2-(2-chloro-4-iodo-phenylamino)-N-(2,3-dihydroxy-propoxy)-3,4-difluoro-benzamide], half-maximal inhibition (IC50) was put at 110 nM. The compound `Cc1cc(I)ccc1Nc1c(C(=O)NOCC(O)CO)ccc(F)c1F` (stereo not drawn) [Example 89, N-(2,3-Dihydroxy-propoxy)-3,4-difluoro-2-(4-iodo-2-methyl-phenylamino)-benzamide] showed an IC50 of 12 nM. In turn, `Cc1cc(I)ccc1Nc1c(C(=O)NOCC(O)CO)cc(F)c(F)c1F` (stereo not drawn) [Example 90, N-(2,3-Dihydroxy-propoxy)-3,4,5-trifluoro-2-(4-iodo-2-methyl-phenylamino)-benzamide] displayed an IC50 of 40 nM. For `Cc1cc(I)ccc1Nc1c(C(=O)NOCC(O)CO)cc(Br)c(F)c1F` (stereo not drawn) [Example 91, 5-Bromo-N-(2,3-dihydroxy-propoxy)-3,4-difluoro-2-(4-iodo-2-methyl-phenylamino)-benzamide], the “% Inhibition @ 0.1 μM” value amounted to 89.4% and the “% Inhibition @ 1 μM” value is 98.9%. Take `O=C(NOCCC(O)CO)c1ccc(F)c(F)c1Nc1ccc(I)cc1Cl` (stereo not drawn) [Example 92, 2-(2-Chloro-4-iodo-phenylamino)-N-(3,4-dihydroxy-butoxy)-3,4-difluoro-benzamide]: the “% Inhibition @ 0.1 μM” value came to 51.8% and the “% Inhibition @ 1 μM” value amounted to 92.4%.

For the compound `O=C(NOCCC(O)CO)c1cc(F)c(F)c(F)c1Nc1ccc(I)cc1Cl` (stereo not drawn) [Example 93, 2-(2-Chloro-4-iodo-phenylamino)-N-(3,4-dihydroxy-butoxy)-3,4,5-trifluoro-benzamide], the “% Inhibition @ 0.1 μM” value is given as 4% and the “% Inhibition @ 1 μM” value turned out to be 79.1%. `O=C(NOCCC(O)CO)c1cc(Br)c(F)c(F)c1Nc1ccc(I)cc1Cl` (stereo not drawn) [Example 94, 5-Bromo-2-(2-chloro-4-iodo-phenylamino)-N-(3,4-dihydroxy-butoxy)-3,4-difluoro-benzamide] gave an IC50 of 280 nM. That is a sub-micromolar value.

Compound `Cc1cc(I)ccc1Nc1c(C(=O)NOCCC(O)CO)ccc(F)c1F` (stereo not drawn) [Example 95, N-(3,4-Dihydroxy-butoxy)-3,4-difluoro-2-(4-iodo-2-methyl-phenylamino)-benzamide] returned a concentration for half-maximal inhibition (IC50) of 190 nM. For the compound `Cc1cc(I)ccc1Nc1c(C(=O)NOCCC(O)CO)cc(F)c(F)c1F` (stereo not drawn) [Example 96, N-(3,4-Dihydroxy-butoxy)-3,4,5-trifluoro-2-(4-iodo-2-methyl-phenylamino)-benzamide], the “% Inhibition @ 0.1 μM” value worked out at 35% and the “% Inhibition @ 1 μM” value came out at 87.1%.

Take `Cc1cc(I)ccc1Nc1c(C(=O)NOCCC(O)CO)cc(Br)c(F)c1F` (stereo not drawn) [Example 97, 5-Bromo-N-(3,4-dihydroxy-butoxy)-3,4-difluoro-2-(4-iodo-2-methyl-phenylamino)-benzamide]: the “% Inhibition @ 0.1 μM” value was 30.1% and the “% Inhibition @ 1 μM” value was found to be 91.9%.

Regarding `O=C(NOCCCO)c1cc(Br)c(F)c(F)c1Nc1ccc(I)cc1Cl` [Example 98, 5-Bromo-2-(2-chloro-4-iodo-phenylamino)-3,4-difluoro-N-(3-hydroxy-propoxy)-benzamide], the IC50 worked out at 11 nM. With `O=C(NOCCCO)c1ccc(F)c(F)c1Nc1ccc(I)cc1Cl` [Example 99, 2-(2-Chloro-4-iodo-phenylamino)-3,4-difluoro-N-(3-hydroxy-propoxy)-benzamide], the IC50 is 18 nM. `Cc1cc(I)ccc1Nc1c(C(=O)NOCCCO)cc(F)c(F)c1F` [Example 100, 3,4,5-Trifluoro-N-(3-hydroxy-propoxy)-2-(4-iodo-2-methyl-phenylamino)-benzamide] displayed an IC50 of 58 nM. Compared with the last compound, the IC50 is about 3.2-fold higher. In the case of `O=C(NOCCCO)c1cc(F)c(F)c(F)c1Nc1ccc(I)cc1Cl` [Example 101, 2-(2-Chloro-4-iodo-phenylamino)-3,4,5-trifluoro-N-(3-hydroxy-propoxy)-benzamide], the midpoint of inhibition, the IC50, lay at 225 nM.

With `Cc1cc(I)ccc1Nc1c(C(=O)NOCCCO)cc(Br)c(F)c1F` [Example 102, 5-Bromo-3,4-difluoro-N-(3-hydroxy-propoxy)-2-(4-iodo-2-methyl-phenylamino)-benzamide], the IC50 worked out at 275 nM. In turn, `Cc1cc(I)ccc1Nc1c(C(=O)NOCCCO)ccc(F)c1F` [Example 103, 3,4-Difluoro-N-(3-hydroxy-propoxy)-2-(4-iodo-2-methyl-phenylamino)-benzamide] had an IC50 of 487 nM. As to `CCC(O)CONC(=O)c1ccc(F)c(F)c1Nc1ccc(I)cc1Cl` (stereo not drawn) [Example 104, 2-(2-Chloro-4-iodo-phenylamino)-3,4-difluoro-N-(2-hydroxy-butoxy)-benzamide], the midpoint of inhibition, the IC50, lay at 24 nM.

Take `CCC(O)CONC(=O)c1cc(F)c(F)c(F)c1Nc1ccc(I)cc1Cl` (stereo not drawn) [Example 105, 2-(2-Chloro-4-iodo-phenylamino)-3,4,5-trifluoro-N-(2-hydroxy-butoxy)-benzamide]: the “% Inhibition @ 0.1 μM” value is recorded as 3.3% and the “% Inhibition @ 1 μM” value was 71.3%. Taken in the same sequence, the figures for `CCC(O)CONC(=O)c1cc(F)c(F)c(F)c1Nc1ccc(I)cc1C` (stereo not drawn) [Example 106, 3,4,5-Trifluoro-N-(2-hydroxy-butoxy)-2-(4-iodo-2-methyl-phenylamino)-benzamide] were 13.2% and 81.6%. `CCC(O)CONC(=O)c1cc(Br)c(F)c(F)c1Nc1ccc(I)cc1Cl` (stereo not drawn) [Example 107, 5-Bromo-2-(2-chloro-4-iodo-phenylamino)-3,4-difluoro-N-(2-hydroxy-butoxy)-benzamide] displayed an IC50 of 76 nM. That is a double-digit nanomolar value.

Regarding `CCC(O)CONC(=O)c1cc(Br)c(F)c(F)c1Nc1ccc(I)cc1C` (stereo not drawn) [Example 108, 5-Bromo-3,4-difluoro-N-(2-hydroxy-butoxy)-2-(4-iodo-2-methyl-phenylamino)-benzamide], the “% Inhibition @ 0.1 μM” value stood at 74% and the “% Inhibition @ 1 μM” value is 94.6%. In the case of `CCC(O)CONC(=O)c1ccc(F)c(F)c1Nc1ccc(I)cc1C` (stereo not drawn) [Example 109, 3,4-Difluoro-N-(2-hydroxy-butoxy)-2-(4-iodo-2-methyl-phenylamino)-benzamide], half-maximal inhibition (IC50) required 38 nM. As for `CCC(O)CONC(=O)c1cc(Cl)c(F)c(F)c1Nc1ccc(I)cc1C` (stereo not drawn) [Example 111, 5-Chloro-3,4-difluoro-N-(2-hydroxy-butoxy)-2-(4-iodo-2-methyl-phenylamino)-benzamide], the “% Inhibition @ 0.1 μM” value came to 78% and the “% Inhibition @ 1 μM” value is 93.4%.
